# From patent US9439975B2, “Small efficient cell penetrating peptides derived from the scorpion toxin maurocalcine” (Commissariat A L'Energie Atomique Et Aux Energies …, priority 2011, dated 2016)
# “Also recorded” adds a separate entry of the source. Square brackets hold non-standard residues; d marks the D form. Primed or numbered codes have the meaning given here. Ends that are not written are not given here. Cy5″ = Cy5 dye, coupled as maleimide to the C-terminal Cys; Abu = CC[C@H](N)C(=O)O; Cy5 = Cy5 label
# Key:
# [1] = system: F98 rat glioma cell line; assay: Flow cytometry of dose-dependent cell penetration in F98 cells; assay type: cell-based; settings: Cy5-labeled peptides
# Method: (§1) Chinese hamster ovary (CHO) and F98 rat glioma cell lines (from ATCC) were maintained at 37° C. in 5% CO2 in F-12K nutrient medium (INVITROGEN) supplemented with 10% (v/v) heat-inactivated fetal bovine serum (INVITROGEN) and 10,000 units/ml streptomycine and penicillin (INVITROGEN) for the CHO cells, and 2% heat-inactivated fetal bovine serum and 100 units/ml streptomycine and penicillin for the F98 cells
# (§2) CHO and F98 cells were incubated with various concentrations of Cy5-labeled peptides in F-12K culture medium without serum at 37° C. for 2 hrs. The cells were then washed with PBS to remove excess extracellular peptide and treated with 1 mg/ml trypsin (INVITROGEN) for 5 min at 37° C. to detach cells from the surface, and centrifuged at 200 g before suspension in PBS. For experiments with the macropinocytosis inhibitor, amiloride, CHO cells were initially washed with F-12K and preincubated for 30 min at 37° C. with 1 mM amiloride (SIGMA). The cells were then incubated for 2 hrs at 37° C. with 1 μM of the Cy5-MCa analogues. For all these experimental conditions, flow cytometry analyses were performed with live cells using a Becton Dickinson flow cytometer LSR II or an Accuri® flow cytometer (BD BIOSCIENCES). Data were obtained and analyzed using FCS express software (DE NOVO) or Accuri® proprietary software CFlow sampler. Live cells were gated by forward/side scattering from a total of 10,000 events.
# (§3) Cy5-labeled peptides derived from MCaUF1-9 were synthesized and assayed by confocal microscopy or flow cytometry as described in example 1.
# [2] = system: F98 cell line; assay: Confocal microscopy of peptide penetration in F98 cell line, comparison with Tat; assay type: cell-based, rat
# Method: (§4) For analysis of the subcellular localization of MCa-Cy5 analogues in living cells, cell cultures were incubated with the fluorescent peptides for 2 hrs, and then washed with phosphate-buffered saline (PBS) alone. The plasma membrane was stained with 5 μg/ml rhodamine-conjugated concanavalin A (MOLECULAR PROBES) for 5 min. Cells were washed once more. Live cells were then immediately analyzed by confocal laser scanning microscopy using a Leica TCS-SPE operating system. Rhodamine (580 nm) and Cy5 (670 nm) were sequentially excited and emission fluorescence were collected in z-confocal planes of […] steps.
# as §3
# [3] = system: CHO cells; assay: Flow cytometry of cell penetration of Cy5-labeled peptides in CHO cells; assay type: cell-based, Chinese hamster; settings: for dose-dependent cell penetration: concentrations up to 33 μM; for cell penetration (fluorescence accumulation within cells): 2 hrs incubation, 3 μM peptide, trypsin treatment
# Method: Each peptide was labeled with Cy5 according to the manufacturer's protocol (GE HEALTHCARE). Peptides were dissolved at 1 mg/ml in 0.1 M Na2CO3 buffer, pH 9.3. 300 μl of the solubilized peptides were added to Cy5-maleimide containing tubes. The mixtures were incubated during 2 hrs at room temperature and then purified by HPLC using an analytical Vydac C18 column. Elution of the Cy5-labeled peptides was performed with a 10-60% acetonitrile linear gradient containing 0.1% trifluoroacetic acid. The pure peak fractions were lyophilized and peptides quantified by UV spectrophotometer at 649 nm.
# as §1, §2
# [4] = system: CHO cells; assay: Confocal microscopy of subcellular localization of Cy5-labeled peptides in living CHO cells (rhodamine-concanavalin A membrane stain); assay type: cell-based, Chinese hamster; settings: 2 hrs; for Cy5-positive pixels rhodamine-positive (colocalization with the plasma membrane indicator): FIG. 3; for Rhodamine-positive staining also Cy5-positive (pixels): Cy5/rhodamine colocalization
# Method: as §4
# [5] = system: CHO cells; assay: Amiloride sensitivity of peptide cell entry (macropinocytosis inhibition), flow cytometry; assay type: cell-based, Chinese hamster; settings: for inhibition of cell penetration by amiloride: 2 hrs, peptide with or without 5 mM amiloride (FIG. 4A); for amiloride-sensitivity of cell penetration: Cy5 as cargo, flow cytometry (FIG. 4)
# Method: as §2, with “For experiments with the macropinocytosis inhibitor, amiloride, CHO cells were initially washed with F-12K and preincubated for 30 min at 37° C. with 1 mM amiloride (SIGMA). The cells were then incubated for 2 hrs at 37° C. with 1 μM of the Cy5-MCa analogues.” left out
# [6] = system: cells; settings: streptavidine as cargo, earlier studies; cited from earlier work
# [7] = target: ryanodine receptor type 1 (RyR1) (Oryctolagus cuniculus, UniProt P11716); settings: earlier reports; cited from earlier work
# Chain of ryanodine receptor type 1 (RyR1) (P11716 whole entry): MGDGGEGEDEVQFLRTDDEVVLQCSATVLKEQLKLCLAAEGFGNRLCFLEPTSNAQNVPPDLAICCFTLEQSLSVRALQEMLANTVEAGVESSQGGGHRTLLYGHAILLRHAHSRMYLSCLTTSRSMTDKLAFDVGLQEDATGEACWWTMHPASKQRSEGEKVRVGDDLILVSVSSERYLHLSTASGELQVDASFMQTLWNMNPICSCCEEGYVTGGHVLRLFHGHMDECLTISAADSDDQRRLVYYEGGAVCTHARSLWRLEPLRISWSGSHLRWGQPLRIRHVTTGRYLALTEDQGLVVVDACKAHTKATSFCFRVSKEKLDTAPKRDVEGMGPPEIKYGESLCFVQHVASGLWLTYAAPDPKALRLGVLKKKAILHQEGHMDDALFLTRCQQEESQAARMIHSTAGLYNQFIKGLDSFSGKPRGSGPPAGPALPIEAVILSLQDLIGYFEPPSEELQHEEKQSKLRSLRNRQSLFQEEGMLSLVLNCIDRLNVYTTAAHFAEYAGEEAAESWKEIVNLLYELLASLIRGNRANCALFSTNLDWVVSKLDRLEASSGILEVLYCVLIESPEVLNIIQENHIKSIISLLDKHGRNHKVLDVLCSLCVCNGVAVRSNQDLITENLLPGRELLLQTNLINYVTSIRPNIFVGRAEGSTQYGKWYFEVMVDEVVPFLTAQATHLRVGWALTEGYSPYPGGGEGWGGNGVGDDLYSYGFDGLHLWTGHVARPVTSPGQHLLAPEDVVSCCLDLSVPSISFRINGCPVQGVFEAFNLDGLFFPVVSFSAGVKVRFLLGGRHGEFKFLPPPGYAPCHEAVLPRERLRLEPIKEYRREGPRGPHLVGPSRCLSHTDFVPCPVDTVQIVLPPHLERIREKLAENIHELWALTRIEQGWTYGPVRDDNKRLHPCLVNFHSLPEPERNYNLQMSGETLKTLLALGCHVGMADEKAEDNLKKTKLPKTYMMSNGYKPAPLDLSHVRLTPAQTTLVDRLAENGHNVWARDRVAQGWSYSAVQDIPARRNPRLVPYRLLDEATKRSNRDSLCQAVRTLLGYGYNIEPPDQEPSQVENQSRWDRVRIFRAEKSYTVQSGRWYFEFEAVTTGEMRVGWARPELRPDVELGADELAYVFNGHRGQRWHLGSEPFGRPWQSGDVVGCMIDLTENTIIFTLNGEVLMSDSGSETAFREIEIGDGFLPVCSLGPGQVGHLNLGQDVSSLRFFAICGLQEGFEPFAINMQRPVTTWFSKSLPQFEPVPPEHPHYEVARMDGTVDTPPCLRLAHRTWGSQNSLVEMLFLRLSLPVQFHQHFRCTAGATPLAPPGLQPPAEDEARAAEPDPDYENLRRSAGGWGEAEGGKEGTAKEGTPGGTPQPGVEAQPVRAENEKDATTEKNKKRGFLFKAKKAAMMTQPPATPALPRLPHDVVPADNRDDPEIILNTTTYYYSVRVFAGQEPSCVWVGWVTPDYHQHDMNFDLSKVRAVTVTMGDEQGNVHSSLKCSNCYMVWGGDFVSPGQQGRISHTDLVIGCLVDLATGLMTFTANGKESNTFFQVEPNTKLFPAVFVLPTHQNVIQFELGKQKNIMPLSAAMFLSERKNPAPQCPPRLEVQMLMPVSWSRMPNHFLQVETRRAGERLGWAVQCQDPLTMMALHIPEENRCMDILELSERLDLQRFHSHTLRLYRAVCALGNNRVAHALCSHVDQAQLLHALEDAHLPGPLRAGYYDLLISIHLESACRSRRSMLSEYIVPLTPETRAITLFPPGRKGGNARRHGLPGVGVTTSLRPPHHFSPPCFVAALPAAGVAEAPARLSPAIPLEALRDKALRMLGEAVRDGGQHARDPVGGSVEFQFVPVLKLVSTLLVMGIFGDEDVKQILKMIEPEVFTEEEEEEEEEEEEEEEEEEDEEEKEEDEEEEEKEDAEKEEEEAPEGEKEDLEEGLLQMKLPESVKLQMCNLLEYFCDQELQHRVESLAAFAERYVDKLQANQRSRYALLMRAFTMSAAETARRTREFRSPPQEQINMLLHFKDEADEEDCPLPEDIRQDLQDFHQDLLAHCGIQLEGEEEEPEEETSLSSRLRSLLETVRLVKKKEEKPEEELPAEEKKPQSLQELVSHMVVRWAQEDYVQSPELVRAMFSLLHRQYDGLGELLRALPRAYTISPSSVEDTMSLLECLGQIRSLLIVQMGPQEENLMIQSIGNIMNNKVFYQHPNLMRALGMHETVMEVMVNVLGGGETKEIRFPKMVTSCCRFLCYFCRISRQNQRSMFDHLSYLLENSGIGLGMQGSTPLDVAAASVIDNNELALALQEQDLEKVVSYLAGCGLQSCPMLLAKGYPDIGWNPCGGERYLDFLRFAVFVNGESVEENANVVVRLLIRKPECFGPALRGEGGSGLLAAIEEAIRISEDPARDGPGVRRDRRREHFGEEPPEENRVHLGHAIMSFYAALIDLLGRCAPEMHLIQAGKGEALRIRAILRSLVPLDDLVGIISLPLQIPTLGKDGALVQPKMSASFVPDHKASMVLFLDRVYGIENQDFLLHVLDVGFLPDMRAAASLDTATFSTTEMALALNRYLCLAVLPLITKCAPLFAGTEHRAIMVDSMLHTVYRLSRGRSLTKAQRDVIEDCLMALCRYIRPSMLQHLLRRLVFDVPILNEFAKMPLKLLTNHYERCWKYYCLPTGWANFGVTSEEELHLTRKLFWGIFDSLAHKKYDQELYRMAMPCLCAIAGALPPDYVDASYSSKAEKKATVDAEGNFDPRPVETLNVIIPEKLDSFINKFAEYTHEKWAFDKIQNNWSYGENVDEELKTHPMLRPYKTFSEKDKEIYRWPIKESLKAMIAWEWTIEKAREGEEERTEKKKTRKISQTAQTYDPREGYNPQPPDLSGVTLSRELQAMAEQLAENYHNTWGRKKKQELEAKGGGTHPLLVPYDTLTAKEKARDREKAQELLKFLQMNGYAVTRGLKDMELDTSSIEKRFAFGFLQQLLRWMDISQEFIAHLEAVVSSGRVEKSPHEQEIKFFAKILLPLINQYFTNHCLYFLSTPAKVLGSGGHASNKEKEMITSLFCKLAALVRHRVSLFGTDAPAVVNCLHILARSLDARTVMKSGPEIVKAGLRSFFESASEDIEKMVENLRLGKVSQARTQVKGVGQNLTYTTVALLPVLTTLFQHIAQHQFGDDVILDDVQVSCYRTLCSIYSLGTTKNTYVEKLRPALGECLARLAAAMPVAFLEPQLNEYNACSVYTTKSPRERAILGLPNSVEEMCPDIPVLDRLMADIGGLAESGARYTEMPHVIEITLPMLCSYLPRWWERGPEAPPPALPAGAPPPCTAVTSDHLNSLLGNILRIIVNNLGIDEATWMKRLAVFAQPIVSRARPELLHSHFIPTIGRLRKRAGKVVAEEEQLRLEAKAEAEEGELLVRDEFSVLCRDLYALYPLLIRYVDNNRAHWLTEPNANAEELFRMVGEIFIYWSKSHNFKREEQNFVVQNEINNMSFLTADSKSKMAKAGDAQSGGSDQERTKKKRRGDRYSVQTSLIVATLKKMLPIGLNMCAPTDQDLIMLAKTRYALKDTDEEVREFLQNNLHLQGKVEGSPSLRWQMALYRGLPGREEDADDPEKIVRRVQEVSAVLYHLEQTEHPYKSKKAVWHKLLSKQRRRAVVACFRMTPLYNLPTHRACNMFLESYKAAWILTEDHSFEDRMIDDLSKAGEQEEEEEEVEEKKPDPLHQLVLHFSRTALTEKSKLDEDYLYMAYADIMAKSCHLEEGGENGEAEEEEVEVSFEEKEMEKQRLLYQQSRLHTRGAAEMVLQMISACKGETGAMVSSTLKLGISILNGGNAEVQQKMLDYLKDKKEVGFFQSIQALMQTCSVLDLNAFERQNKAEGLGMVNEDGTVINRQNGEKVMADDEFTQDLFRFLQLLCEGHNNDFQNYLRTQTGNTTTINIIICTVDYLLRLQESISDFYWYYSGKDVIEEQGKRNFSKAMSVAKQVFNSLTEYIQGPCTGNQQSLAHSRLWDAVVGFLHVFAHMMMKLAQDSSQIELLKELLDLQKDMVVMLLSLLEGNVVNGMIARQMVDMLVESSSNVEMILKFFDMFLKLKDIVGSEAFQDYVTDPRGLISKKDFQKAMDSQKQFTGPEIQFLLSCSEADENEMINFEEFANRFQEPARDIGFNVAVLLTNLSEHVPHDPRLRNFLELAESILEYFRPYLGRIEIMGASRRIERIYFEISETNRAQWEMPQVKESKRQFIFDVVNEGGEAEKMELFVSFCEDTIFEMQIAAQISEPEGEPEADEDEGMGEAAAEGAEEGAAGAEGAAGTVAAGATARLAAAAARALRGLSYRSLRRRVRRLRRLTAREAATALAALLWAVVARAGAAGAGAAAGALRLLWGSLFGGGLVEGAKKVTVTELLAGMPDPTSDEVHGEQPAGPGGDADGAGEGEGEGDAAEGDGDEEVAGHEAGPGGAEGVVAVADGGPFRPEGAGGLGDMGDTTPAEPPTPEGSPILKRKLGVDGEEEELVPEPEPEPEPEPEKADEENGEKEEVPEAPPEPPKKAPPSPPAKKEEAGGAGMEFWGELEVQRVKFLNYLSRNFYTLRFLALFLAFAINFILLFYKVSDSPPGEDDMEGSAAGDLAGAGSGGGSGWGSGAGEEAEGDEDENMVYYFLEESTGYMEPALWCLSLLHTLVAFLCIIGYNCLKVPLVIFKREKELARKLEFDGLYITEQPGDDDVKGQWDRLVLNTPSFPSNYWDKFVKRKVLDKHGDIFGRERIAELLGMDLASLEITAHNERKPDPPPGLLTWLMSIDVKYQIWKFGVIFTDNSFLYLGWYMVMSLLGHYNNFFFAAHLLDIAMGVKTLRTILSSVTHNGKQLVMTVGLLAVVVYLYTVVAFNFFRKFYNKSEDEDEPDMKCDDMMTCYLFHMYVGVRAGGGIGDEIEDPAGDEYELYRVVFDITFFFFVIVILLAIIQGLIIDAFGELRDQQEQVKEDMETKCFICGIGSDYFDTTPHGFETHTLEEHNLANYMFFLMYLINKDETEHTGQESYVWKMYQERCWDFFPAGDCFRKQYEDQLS
substance,measurement,setting,value
"GDWLPHLKL (MCa1-9, C3W variant) [MCaUF1-9(W3)]",cell penetration (CPP efficiency),[1],ones of the best performing CPPs
same,penetration compared with 3 μM Tat,[2]; 1 μM peptide,proved better CPP than Tat at 3 μM
GDaLPHLKL (GD[Abu]LPHLKL) [MCaUF1-9],cell penetration (CPP efficiency),[1],ones of the best performing CPPs
same,dose-dependent cell penetration,[3]; 2 hrs,penetrates better at low concentration
same,penetration compared with 3 μM Tat,[2]; 3 μM peptide,proved better CPP than Tat at 3 μM
GDaLPHLKLC (GD[Abu]LPHLKLC) [MCaUF1-9-C],cell penetration (fluorescence accumulation within cells),[3],showed CPP properties; also recorded: better CPP than MCaUF1-15-C
GDaLPHLKLaKENKDC (GD[Abu]LPHLKL[Abu]KENKDC) [MCaUF1-15-C],cell penetration (fluorescence accumulation within cells),[3],showed CPP properties
GDaWPHLKL (GD[Abu]WPHLKL) [MCaUF1-9(Abu3-W4)],penetration compared with 3 μM Tat,[2]; 1 μM peptide,proved better CPP than Tat at 3 μM
GTNIEKRaRC (GTNIEKR[Abu]RC) [MCaUF25-33-C],cell penetration (fluorescence accumulation within cells),[3],have also CPP properties
KDaaSKKaKRRG (KD[Abu][Abu]SKK[Abu]KRRG) [MCaUF14-25],dose-dependent cell penetration,[3]; 2 hrs,yields the greatest cell entry of the dye
KDalKHLQR (KD[Abu]IKHLQR) [HadUF3-11],cell penetration (CPP efficiency),[1],ones of the best performing CPPs
same,cell penetration (CPP efficiency),[1]; listed as HadUF3-9(Abu5),perform better as CPP than the maurocalcine derived peptide MCaUF1-9(Abu3)
"MCaUF1-9-C-Cy5: MCaUF1-9-C (SEQ ID NO: 136, GDaLPHLKLC) labeled with Cy5 (GD[Abu]LPHLKLC(Cy5″))",concentration with detectable cell penetration,[3]; 2 hrs,10 nM
same,dose-dependent cell penetration,[3]; 2 hrs,best performing peptide for cell penetration at low concentrations
same,Cy5-positive pixels rhodamine-positive (colocalization with the plasma membrane indicator),[4],higher values of colocalization
same,intracellular / plasma membrane distribution,[4]; confocal microscopy,dots appear at higher concentrations within one pole of the cell
MCaUF1-15-C-Cy5: MCaUF1-15-C (SEQ ID NO: 135) labeled with Cy5 (GD[Abu]LPHLKL[Abu]KENKDC(Cy5″)),inhibition of cell penetration by amiloride,[5],39%
same,amiloride-sensitivity of cell penetration,[5],higher amiloride-sensitivity than MCaUF1-33-C-Cy5
MCaUF1-20-C-Cy5: MCaUF1-20-C (SEQ ID NO: 134) labeled with Cy5 (GD[Abu]LPHLKL[Abu]KENKD[Abu][Abu]SKKC(Cy5″)),dose-dependent cell penetration,[3]; 2 hrs,performing as well as MCaUF8-33-C-Cy5
same,Cy5-positive pixels rhodamine-positive (colocalization with the plasma membrane indicator),[4],30.4±1.4%
MCaUF1-33-C-Cy5: MCaUF1-33-C (SEQ ID NO: 140) labeled with Cy5 on the C-terminal Cys (GD[Abu]LPHLKL[Abu]KENKD[Abu][Abu]SKK[Abu]KRRGTNIEKR[Abu]RC(Cy5)),inhibition of cell penetration by amiloride,[5],19.6%
same,cell penetration (fluorescence accumulation within cells),[3],penetrated efficiently within CHO cells
same,dose-dependent cell penetration,[3]; 2 hrs,least-performing cell penetrating peptide
same,Cy5-positive pixels rhodamine-positive (colocalization with the plasma membrane indicator),[4],10.1±2.6%
same,degree of accumulated cell fluorescence,[4]; confocal microscopy,penetrate the least
"MCaUF1-33: unfolded full-length MCa, six Cys replaced by 2-aminobutyric acid (Abu) (GD[Abu]LPHLKL[Abu]KENKD[Abu][Abu]SKK[Abu]KRRGTNIEKR[Abu]R; not fully specified (residue 33))",amiloride sensitivity of cell entry,[6],largely sensitive to amiloride
same,pharmacological action on / interaction with RyR1,[7],"unable to interact with MCa's target, the ryanodine receptor RyR1"
MCaUF8-33-C-Cy5: MCaUF8-33-C (SEQ ID NO: 141) labeled with Cy5 (KL[Abu]KENKD[Abu][Abu]SKK[Abu]KRRGTNIEKR[Abu]RC(Cy5″)),dose-dependent cell penetration,[3]; 2 hrs,did not show any sign of saturation; also recorded: no saturation of cell entry
same,intracellular / plasma membrane distribution,[4]; confocal microscopy,dots appear at higher concentrations within one pole of the cell
MCaUF11-33-C-Cy5: MCaUF11-33-C (SEQ ID NO: 142) labeled with Cy5 (KENKD[Abu][Abu]SKK[Abu]KRRGTNIEKR[Abu]RC(Cy5″)),amiloride-sensitivity of cell penetration,[5],higher amiloride-sensitivity than MCaUF1-33-C-Cy5
same,Cy5-positive pixels rhodamine-positive (colocalization with the plasma membrane indicator),[4],21.3±2.6%
same,intracellular / plasma membrane distribution,[4]; confocal microscopy,dots appear at higher concentrations within one pole of the cell
MCaUF14-25-C-Cy5: MCaUF14-25-C (SEQ ID NO: 139) labeled with Cy5 (KD[Abu][Abu]SKK[Abu]KRRGC(Cy5″)),amiloride-sensitivity of cell penetration,[5],higher amiloride-sensitivity than MCaUF1-33-C-Cy5
same,dose-dependent cell penetration,[3]; 2 hrs,yields the greatest fluorescence accumulation
same,intracellular / plasma membrane distribution,[4]; confocal microscopy,sub-plasma membrane rim localization was more evident
MCaUF14-33-C-Cy5: MCaUF14-33-C (SEQ ID NO: 143) labeled with Cy5 (KD[Abu][Abu]SKK[Abu]KRRGTNIEKR[Abu]RC(Cy5″)),Rhodamine-positive staining also Cy5-positive (pixels),[4],best performing
same,Cy5-positive pixels rhodamine-positive (colocalization with the plasma membrane indicator),[4],higher values of colocalization
MCaUF18-33-C-Cy5: MCaUF18-33-C (SEQ ID NO: 137) labeled with Cy5 (SKK[Abu]KRRGTNIEKR[Abu]RC(Cy5″)),amiloride-sensitivity of cell penetration,[5],enhance rather than inhibit the cell penetration
same,dose-dependent cell penetration,[3]; 2 hrs,performed drastically better than the other truncated peptides
same,Rhodamine-positive staining also Cy5-positive (pixels),[4],best performing
MCaUF20-33-C-Cy5: MCaUF20-33-C (SEQ ID NO: 144) labeled with Cy5 (K[Abu]KRRGTNIEKR[Abu]RC(Cy5″)),amiloride-sensitivity of cell penetration,[5],enhance rather than inhibit the cell penetration
same,Rhodamine-positive staining also Cy5-positive (pixels),[4],best performing
same,intracellular / plasma membrane distribution,[4]; confocal microscopy,Diffuse membrane labeling
MCaUF22-33-C-Cy5: MCaUF22-33-C (SEQ ID NO: 145) labeled with Cy5 (KRRGTNIEKR[Abu]RC(Cy5″)),Rhodamine-positive staining also Cy5-positive (pixels),[4],best performing
same,intracellular / plasma membrane distribution,[4]; confocal microscopy,direct plasma membrane labeling
MCaUF25-33-C-Cy5: MCaUF25-33-C (SEQ ID NO: 146) labeled with Cy5 (GTNIEKR[Abu]RC(Cy5″)),amiloride-sensitivity of cell penetration,[5],higher amiloride-sensitivity than MCaUF1-33-C-Cy5
same,intracellular / plasma membrane distribution,[4]; confocal microscopy,dots appear at higher concentrations within one pole of the cell; also recorded: Diffuse membrane labeling
SEKDalKHLQR (SEKD[Abu]IKHLQR) [HadUF1-11],cell penetration (CPP efficiency),[1],ones of the best performing CPPs
same,cell penetration (CPP efficiency),[1]; listed as HadUF1-11(Abu5),perform better as CPP than the maurocalcine derived peptide MCaUF1-9(Abu3)
same,penetration compared with 3 μM Tat,[2]; 1 μM peptide,proved better CPP than Tat at 3 μM
SKKaKRRGTNIEKRaR (SKK[Abu]KRRGTNIEKR[Abu]R) [MCaUF18-33],amiloride-sensitivity of cell penetration,[5],macropinocytosis entry-independent
aLPHLKL ([Abu]LPHLKL) [MCaUF3-9],cell penetration (CPP efficiency),[1],ones of the best performing CPPs
same,cell penetration (CPP efficiency),[1]; listed as MCaUF3-9(Abu3),efficient CPP
same,penetration compared with 3 μM Tat,[2]; 1 μM peptide,proved better CPP than Tat at 3 μM
